Data published in US20260284018A1, “DUAL INHIBITORS OF DYRK1A AND 5-HT2 FOR TREATING A BRAIN DISORDER” (THE REGENTS OF THE UNIVERSITY OF CALIFORNIA, priority 2023, published 2026).

Tested on: phospho-Tau
Assay: Phospho-Tau assay using cultured rat cortical neurons (okadaic acid insult)
Type: cell-based
Conditions: pretreatment, 30 nM okadaic acid, rat cortical cultures, FIG. 14 and 15B
Protocol: Phospho-Tau Assay Using Cultured Rat Cortical Neurons. Primary cortical cell cultures were prepared as described previously.^2 Briefly, pregnant Sprague Dawley dams were euthanized at embryonic day 18 (E18), and the cortices of the pups were harvested. Cells were plated on poly-d-lysine coated plates at 15,000 cells per well. Cultures were maintained at 37° C. under an atmosphere containing 5% CO2. Plating media consisted of 10% heat-inactivated fetal bovine serum (FBS; Fisher) 1% penicillin-streptomycin (Fisher), and 0.5 mM glutamine (Life Technologies) in Neurobasal (Fisher). After 16-24 h, media was exchanged for replacement media consisting of IX B27 supplement (Fisher), 1% penicillin-streptomycin, 0.5 mM glutamine, and 12.5 μM glutamate in Neurobasal. On DIV6 and DIV13, 50% of media was removed, and feeding media containing 1×B27 supplement, 1% penicillin-streptomycin, 0.5 mM glutamine in Neurobasal was added with an additional 20% volume added to account for evaporation. On DIV14, the volume of each well was adjusted to 180 μL. Next, 1000× solutions of compounds in DMSO were diluted 1:100 into Neurobasal and 20 μL of the resulting solutions was added to the appropriate wells (total dilution=1:1000, 0.1% DMSO). For wells that were not treated with compounds, DMSO was diluted 1:100 into Neurobasal and 20 μL of the resulting solution was added to the appropriate wells. All treatments were randomized. After 24 h, 20 μL was removed from each well. […] After 1 h, neurons were fixed by removing 80% of the media and replacing it with a volume of 4% aqueous paraformaldehyde (ThermoFisher) equal to 50% of the working volume of the well. Then, the cells were incubated at room temperature for 15 min before the fixative was aspirated and each well was washed twice with DPBS. Cells were permeabilized using 0.2% Triton X-100 (ThermoFisher) in DPBS for 15 min at room temperature without shaking. Plates were blocked with blocking buffer (2% bovine serum albumin and […] in DPBS) overnight at 4° C. Then, plates were incubated overnight at 4° C. with gentle shaking in antibody dilution buffer (ADB) (1% bovine serum albumin and […] in DBPS) containing a chicken anti-MAP2 antibody (1:10,000; EnCor, CPCA-MAP2), guinea pig anti-Tau antibody (1:1000; Synaptic Systems), mouse anti-phosphoTau (Ser202/Thr205) antibody (1:1000; Invitrogen), and rabbit anti-phosphoTau (Ser396) antibody (1:1000; Invitrogen). Plates were washed twice with DPBS and once with ADB before being incubated for 1 h at room temperature in ADB containing an anti-chicken IgY secondary antibody conjugated to Alexa Fluor™ Plus 800 (1:1000; Invitrogen), an anti-mouse IgG secondary antibody conjugated to Alexa Fluor™ Plus 680 (1:1000; Invitrogen), an anti-guinea pig IgG secondary antibody conjugated to Alexa Fluor™ 596 (1:1000; Invitrogen), and an anti-rabbit IgG secondary antibody conjugated to Alexa Fluor™ Plus 488 (1:1000; Invitrogen). Plates were washed three times with DBPS, and after the final wash, 100 μL of DPBS was added per well before imaging on a CellInsight™ CX7 High Content Analysis imager at 20× with 12 ROIs taken per well with no bias to location and no overlap of the ROIs. Images were analyzed using Cellnomics Scan software (version 6.6.2). The compartmental analysis assay was used to measure the average intensity of each channel per field and determine the reported intensity ratios.

Q: `CN(C)CCn1ccc2ccccc21` [isoDMT, reference compound] was tested. Which “hyperphosphorylation of Tau (pTau accumulation) induced by okadaic acid” value did it give?
A: Its value is “does not”.
